Measurements taken from ChEMBL document CHEMBL1201862, “PubChem BioAssay data set” (2004).
Active and inactive are the calls of the source.

Columns and labels:
Cysteine protease ATG4B = target: T1, Cysteine protease ATG4B (Homo sapiens, UniProt Q9Y4P1); format: functional;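 also: Fluorescence-based dose-response confirmation assay measuring inhibition of ATG4B activity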
T1 sequence (Q9Y4P1 whole entry): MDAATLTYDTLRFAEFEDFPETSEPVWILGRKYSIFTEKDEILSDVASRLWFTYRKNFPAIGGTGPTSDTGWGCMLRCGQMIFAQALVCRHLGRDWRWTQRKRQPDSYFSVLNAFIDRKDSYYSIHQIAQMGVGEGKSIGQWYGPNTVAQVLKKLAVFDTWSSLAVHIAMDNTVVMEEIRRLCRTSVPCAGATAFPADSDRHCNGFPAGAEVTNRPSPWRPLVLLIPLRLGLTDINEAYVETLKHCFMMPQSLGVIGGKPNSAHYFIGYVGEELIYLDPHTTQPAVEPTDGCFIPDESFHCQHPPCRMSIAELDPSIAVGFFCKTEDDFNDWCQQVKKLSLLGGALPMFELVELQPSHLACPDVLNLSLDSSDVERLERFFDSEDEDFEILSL

Phospholipase A2 = Phospholipase A2 (Homo sapiens, UniProt P04054); format: functional;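 also: confirmatory dose-response counterscreen on phospholipase A2, testing hits that came from an ultra-high-throughput screen for ATG4B inhibitors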
[1] = target: T2, Sentrin-specific protease 6 (Homo sapiens, UniProt Q9GZR1); assay: SAR Analysis of small molecule inhibitors of Sentrin-specific protease 6 (SENP6) using a Luminescent assay. [Related pubchem assays (depositor defined):AID2582, AID2599]; format: functional
T2 sequence (Q9GZR1 whole entry): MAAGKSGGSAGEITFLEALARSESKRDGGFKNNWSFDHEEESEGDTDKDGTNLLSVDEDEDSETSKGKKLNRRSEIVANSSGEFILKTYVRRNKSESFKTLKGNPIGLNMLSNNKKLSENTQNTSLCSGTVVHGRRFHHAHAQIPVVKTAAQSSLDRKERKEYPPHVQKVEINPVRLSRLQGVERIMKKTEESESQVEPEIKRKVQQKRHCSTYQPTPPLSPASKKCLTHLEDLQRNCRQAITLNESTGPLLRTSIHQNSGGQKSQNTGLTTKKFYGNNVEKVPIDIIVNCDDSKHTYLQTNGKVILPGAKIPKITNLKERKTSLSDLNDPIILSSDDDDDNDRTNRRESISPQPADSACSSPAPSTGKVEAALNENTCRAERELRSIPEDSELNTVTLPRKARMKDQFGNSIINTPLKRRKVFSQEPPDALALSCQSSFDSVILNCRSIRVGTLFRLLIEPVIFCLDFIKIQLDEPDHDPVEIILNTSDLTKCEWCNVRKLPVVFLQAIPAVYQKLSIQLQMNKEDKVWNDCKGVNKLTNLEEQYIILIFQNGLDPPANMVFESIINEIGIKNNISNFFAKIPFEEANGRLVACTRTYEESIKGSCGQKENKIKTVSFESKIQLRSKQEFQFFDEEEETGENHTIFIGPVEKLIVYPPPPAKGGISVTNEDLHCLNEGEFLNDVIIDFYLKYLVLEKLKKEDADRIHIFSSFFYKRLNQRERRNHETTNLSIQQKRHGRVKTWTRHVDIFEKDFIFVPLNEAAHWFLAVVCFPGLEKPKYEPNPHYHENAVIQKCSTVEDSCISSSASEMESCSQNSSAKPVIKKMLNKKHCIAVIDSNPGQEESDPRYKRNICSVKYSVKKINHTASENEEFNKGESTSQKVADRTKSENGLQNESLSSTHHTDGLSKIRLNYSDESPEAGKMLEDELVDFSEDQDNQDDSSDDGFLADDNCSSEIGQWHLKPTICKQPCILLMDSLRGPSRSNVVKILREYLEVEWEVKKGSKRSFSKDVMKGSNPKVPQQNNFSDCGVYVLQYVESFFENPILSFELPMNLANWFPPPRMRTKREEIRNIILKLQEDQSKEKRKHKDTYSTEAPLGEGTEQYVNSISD

[2] = target: T3, Sentrin-specific protease 8 (Homo sapiens, UniProt Q96LD8); assay: SENP8 protease inhibitors, SAR follow-up, biochemical, luminescence (AID 504501); format: functional
T3 sequence (Q96LD8 whole entry): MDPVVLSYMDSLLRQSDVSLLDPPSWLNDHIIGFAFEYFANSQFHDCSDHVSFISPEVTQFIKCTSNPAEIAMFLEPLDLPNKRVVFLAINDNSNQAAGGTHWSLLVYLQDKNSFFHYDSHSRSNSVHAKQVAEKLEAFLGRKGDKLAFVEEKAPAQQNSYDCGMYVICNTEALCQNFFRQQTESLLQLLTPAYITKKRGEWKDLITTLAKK

Caspase-3 = target: T4, Caspase-3 (Homo sapiens, UniProt P42574); assay: SAR Analysis of small molecule inhibitors of Sentrin-specific proteases (SENPs) using a Caspase-3 Selectivity assay. [Related pubchem assays (depositor defined):AID2540, AID2599, AID434973, AID489001]; format: functional
T4 sequence (P42574 whole entry): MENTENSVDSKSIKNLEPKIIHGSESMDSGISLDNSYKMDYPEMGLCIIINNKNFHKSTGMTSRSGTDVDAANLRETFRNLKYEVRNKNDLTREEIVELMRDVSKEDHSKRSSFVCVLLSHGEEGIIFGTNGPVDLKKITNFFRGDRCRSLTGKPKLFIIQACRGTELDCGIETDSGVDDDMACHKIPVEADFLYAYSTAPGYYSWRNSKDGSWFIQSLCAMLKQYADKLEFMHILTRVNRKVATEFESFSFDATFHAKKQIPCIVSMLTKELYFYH

[3] = target: T5, Sentrin-specific protease 7 (Homo sapiens, UniProt Q9BQF6); assay: SENP7 protease inhibitors, SAR follow-up, biochemical, luminescence (AID 504497); format: functional
T5 sequence (Q9BQF6 whole entry): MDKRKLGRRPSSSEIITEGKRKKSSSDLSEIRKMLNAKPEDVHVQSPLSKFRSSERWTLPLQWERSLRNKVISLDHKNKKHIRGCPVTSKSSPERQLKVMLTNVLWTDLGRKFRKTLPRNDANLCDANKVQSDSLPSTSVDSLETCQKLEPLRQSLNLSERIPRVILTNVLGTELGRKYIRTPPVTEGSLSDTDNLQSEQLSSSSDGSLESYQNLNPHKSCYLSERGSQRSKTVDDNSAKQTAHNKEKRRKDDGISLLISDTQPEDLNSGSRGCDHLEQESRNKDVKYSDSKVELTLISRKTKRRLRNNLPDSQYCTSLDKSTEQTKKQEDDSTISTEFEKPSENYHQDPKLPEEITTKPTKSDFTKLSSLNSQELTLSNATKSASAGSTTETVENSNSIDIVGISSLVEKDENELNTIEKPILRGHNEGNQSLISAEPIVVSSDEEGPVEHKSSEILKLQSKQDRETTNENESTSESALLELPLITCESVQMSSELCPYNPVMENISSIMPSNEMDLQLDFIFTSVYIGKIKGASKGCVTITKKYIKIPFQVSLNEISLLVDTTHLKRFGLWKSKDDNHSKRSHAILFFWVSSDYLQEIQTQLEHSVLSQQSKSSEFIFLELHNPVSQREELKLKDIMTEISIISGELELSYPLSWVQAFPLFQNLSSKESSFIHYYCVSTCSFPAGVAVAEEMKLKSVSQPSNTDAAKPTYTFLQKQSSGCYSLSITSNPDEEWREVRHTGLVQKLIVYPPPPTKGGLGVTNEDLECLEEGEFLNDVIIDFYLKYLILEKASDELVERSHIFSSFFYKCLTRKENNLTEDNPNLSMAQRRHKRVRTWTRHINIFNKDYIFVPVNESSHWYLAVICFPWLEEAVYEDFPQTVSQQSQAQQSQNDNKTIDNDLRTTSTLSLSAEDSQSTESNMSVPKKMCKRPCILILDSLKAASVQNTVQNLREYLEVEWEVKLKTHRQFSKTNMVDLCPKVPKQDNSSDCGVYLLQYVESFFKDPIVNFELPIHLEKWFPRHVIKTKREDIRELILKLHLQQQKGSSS

[4] = target: T6, Orexin/Hypocretin receptor type 1 (Homo sapiens, UniProt O43613); assay: (§1) Fluorescence-based cell-based high throughput dose response assay for antagonists of the orexin 1 receptor (OX1R; HCRTR1). [Related pubchem assays (depositor defined):AID434989, AID435008, AID463079, AID485270, AID492963, AID492964, AID492965, AID493232, AID504717, AID504718]; format: functional
T6 sequence (O43613 whole entry): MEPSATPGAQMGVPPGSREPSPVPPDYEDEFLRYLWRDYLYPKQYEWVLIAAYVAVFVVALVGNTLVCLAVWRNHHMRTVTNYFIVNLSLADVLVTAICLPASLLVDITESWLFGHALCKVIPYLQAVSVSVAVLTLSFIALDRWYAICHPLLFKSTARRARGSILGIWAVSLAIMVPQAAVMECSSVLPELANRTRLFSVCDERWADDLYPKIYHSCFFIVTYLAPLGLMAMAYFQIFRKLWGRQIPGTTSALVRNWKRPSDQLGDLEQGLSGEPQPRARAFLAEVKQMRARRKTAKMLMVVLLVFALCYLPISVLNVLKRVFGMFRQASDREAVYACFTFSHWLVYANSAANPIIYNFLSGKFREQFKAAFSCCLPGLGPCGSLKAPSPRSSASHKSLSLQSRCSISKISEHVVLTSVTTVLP

Orexin receptor type 2 [5] = target: T7, Orexin receptor type 2 (Homo sapiens, UniProt O43614); assay: Counterscreen assay for antagonists of the orexin 1 receptor (OX1R; HCRTR1): Homogeneous Time Resolved Fluorescence (HTRF)-based cell-based dose response assay for antagonists of the orexin 2 receptor (OX2R; HCRTR2), run by assay provider.; format: functional
T7 sequence (O43614 whole entry): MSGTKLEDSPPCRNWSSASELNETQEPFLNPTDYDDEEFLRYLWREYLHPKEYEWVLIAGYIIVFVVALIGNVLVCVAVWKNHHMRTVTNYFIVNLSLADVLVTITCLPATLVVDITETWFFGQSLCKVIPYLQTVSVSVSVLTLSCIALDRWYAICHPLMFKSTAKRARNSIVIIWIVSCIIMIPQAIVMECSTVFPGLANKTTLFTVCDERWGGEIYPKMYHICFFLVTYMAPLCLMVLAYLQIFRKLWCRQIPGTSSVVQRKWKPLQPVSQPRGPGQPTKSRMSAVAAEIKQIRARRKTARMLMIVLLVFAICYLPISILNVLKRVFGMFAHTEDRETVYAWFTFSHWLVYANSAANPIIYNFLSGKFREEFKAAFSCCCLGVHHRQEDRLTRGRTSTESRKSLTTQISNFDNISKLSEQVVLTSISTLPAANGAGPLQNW

Orexin receptor type 2 [6] = target: T7, Orexin receptor type 2; assay: Counterscreen assay for antagonists of the orexin 1 receptor (OX1R; HCRTR1): Fluorescence-based cell-based dose response assay for antagonists of the orexin 2 receptor (OX2R; HCRTR2), run by assay provider.; format: functional
[7] = (§2) Counterscreen for antagonists of the orexin 1 receptor (OX1R; HCRTR1): Fluorescence-based cell-based high throughput dose response assay to identify antagonists of the parental CHO cell line. [Related pubchem assays (depositor defined):AID434989, AID435008, AID463079, AID485270, AID492963, AID492964, AID492965, AID493232, AID504699, AID504701]; format: functional
[8] = target: T6, Orexin/Hypocretin receptor type 1; assay: as §1, with “Homogeneous Time Resolved Fluorescence (HTRF)-based” for “Fluorescence-based”; format: functional
CHO-K1 = assay: as §2, with “Homogeneous time resolved fluorescence (HTRF)-based” for “Fluorescence-based”, “cell-based” for “cell-based high throughput”, “CHO-K1” for “CHO”; format: functional; details: Cricetulus griseus;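 also: potency for inhibition of ATP-stimulated IP1 production as antagonists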
[9] = inhibitors of firefly luciferase expression or activity, dose response, H4 neuroglioma cells, luminescence (AID 1990); format: functional, cell-based
[10] = target: Peroxisome proliferator-activated receptor gamma/Nuclear receptor coactivator 2 (Homo sapiens, UniProt P37231); assay: (§3) TR-FRET dose response biochemical High Throughput Screening assay for agonists of the steroid receptor coactivator 2 (SRC-2) recruitment by the peroxisome proliferator-activated receptor gamma (PPAR gamma): non-selective agonists. [Related pubchem assays: 1297, 1032 ]; format: functional
[11] = target: Peroxisome proliferator-activated receptor gamma/Nuclear receptor coactivator 1 (Homo sapiens, UniProt P37231); assay: as §3, with “1 (SRC-1)” for “2 (SRC-2)”, “assays (depositor defined):AID1300, AID1808, AID504735, AID631]” for “assays: 1297, 1032 ]”; format: protein assay
[12] = target: Peroxisome proliferator-activated receptor gamma/Nuclear receptor coactivator 3 (Homo sapiens, UniProt P37231); assay: as §3, with “3 (SRC-3)” for “2 (SRC-2)”, “1301 (Confirmation screen.), 1048 (Primary screen.)]” for “1297, 1032 ]”; format: functional
[13] = Luminescence Cell-Based Dose Response HTS to Identify Inhibitors of 5'UTR Stem-Loop Driven Prion Protein mRNA Translation in H4 Neuroglioblastoma Cells. [Related pubchem assays: 1827 (Project Summary), 1813 (Primary HTS)]; format: functional
Vero = assay: cells; format: functional, cell-based; details: Chlorocebus sabaeus
[14] = inhibitors of SNCA 5'UTR-driven reporter translation, confirmation, H4 neuroglioma cells, luminescence (AID 1988); format: functional, cell-based

Sequence of Peroxisome proliferator-activated receptor gamma/Nuclear receptor coactivator 1 (P37231 whole entry): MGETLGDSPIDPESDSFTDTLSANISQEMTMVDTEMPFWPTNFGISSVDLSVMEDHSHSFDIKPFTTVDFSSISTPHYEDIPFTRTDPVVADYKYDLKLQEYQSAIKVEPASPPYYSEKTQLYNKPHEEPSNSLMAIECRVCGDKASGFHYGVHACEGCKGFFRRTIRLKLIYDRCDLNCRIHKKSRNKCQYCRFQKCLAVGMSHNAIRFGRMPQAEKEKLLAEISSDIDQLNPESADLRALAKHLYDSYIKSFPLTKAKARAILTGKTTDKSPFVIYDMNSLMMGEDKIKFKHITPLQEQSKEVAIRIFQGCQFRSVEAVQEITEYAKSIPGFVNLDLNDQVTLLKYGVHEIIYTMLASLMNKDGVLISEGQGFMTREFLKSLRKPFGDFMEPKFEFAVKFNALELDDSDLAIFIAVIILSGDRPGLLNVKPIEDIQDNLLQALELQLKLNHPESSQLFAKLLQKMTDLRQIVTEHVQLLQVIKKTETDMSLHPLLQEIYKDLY
Sequence of Peroxisome proliferator-activated receptor gamma/Nuclear receptor coactivator 1 (Q15788 whole entry, further chain): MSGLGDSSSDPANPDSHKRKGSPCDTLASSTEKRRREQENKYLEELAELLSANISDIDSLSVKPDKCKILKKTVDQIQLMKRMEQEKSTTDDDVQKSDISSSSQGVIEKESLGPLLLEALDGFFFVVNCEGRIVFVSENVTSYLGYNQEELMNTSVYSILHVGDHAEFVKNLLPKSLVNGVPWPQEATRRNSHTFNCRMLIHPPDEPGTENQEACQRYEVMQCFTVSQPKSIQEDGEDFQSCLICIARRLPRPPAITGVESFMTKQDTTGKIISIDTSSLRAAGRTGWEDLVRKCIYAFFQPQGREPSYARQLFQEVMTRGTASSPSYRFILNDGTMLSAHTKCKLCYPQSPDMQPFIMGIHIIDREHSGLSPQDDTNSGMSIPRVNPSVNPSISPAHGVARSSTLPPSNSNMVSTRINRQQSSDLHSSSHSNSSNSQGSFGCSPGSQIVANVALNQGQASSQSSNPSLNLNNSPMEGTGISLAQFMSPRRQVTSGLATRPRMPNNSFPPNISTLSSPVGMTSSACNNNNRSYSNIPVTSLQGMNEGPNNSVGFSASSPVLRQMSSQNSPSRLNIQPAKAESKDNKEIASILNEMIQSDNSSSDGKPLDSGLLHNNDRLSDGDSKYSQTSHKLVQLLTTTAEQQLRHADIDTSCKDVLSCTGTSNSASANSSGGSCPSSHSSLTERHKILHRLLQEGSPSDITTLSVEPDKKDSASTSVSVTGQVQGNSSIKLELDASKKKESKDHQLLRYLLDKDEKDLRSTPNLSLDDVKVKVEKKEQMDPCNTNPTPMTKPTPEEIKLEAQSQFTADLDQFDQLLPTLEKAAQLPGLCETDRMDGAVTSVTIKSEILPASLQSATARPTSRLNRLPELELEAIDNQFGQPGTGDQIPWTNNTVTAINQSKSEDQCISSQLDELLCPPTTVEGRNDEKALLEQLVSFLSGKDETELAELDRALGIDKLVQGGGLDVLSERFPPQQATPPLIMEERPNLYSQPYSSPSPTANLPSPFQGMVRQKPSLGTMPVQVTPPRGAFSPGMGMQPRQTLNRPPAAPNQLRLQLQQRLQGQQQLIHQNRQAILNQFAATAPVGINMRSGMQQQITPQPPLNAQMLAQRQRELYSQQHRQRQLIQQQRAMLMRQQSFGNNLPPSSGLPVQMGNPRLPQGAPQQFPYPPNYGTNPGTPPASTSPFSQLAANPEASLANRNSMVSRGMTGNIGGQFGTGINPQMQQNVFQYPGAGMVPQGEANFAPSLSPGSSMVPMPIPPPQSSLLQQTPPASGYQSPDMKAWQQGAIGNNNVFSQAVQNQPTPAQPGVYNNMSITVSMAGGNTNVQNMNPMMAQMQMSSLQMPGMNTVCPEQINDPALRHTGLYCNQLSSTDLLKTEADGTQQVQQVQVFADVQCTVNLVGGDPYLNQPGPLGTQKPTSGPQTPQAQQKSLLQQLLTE
Sequence of Peroxisome proliferator-activated receptor gamma/Nuclear receptor coactivator 2 (P37231 whole entry): as the sequence (P37231 whole entry) above
Sequence of Peroxisome proliferator-activated receptor gamma/Nuclear receptor coactivator 2 (Q15596 whole entry, further chain): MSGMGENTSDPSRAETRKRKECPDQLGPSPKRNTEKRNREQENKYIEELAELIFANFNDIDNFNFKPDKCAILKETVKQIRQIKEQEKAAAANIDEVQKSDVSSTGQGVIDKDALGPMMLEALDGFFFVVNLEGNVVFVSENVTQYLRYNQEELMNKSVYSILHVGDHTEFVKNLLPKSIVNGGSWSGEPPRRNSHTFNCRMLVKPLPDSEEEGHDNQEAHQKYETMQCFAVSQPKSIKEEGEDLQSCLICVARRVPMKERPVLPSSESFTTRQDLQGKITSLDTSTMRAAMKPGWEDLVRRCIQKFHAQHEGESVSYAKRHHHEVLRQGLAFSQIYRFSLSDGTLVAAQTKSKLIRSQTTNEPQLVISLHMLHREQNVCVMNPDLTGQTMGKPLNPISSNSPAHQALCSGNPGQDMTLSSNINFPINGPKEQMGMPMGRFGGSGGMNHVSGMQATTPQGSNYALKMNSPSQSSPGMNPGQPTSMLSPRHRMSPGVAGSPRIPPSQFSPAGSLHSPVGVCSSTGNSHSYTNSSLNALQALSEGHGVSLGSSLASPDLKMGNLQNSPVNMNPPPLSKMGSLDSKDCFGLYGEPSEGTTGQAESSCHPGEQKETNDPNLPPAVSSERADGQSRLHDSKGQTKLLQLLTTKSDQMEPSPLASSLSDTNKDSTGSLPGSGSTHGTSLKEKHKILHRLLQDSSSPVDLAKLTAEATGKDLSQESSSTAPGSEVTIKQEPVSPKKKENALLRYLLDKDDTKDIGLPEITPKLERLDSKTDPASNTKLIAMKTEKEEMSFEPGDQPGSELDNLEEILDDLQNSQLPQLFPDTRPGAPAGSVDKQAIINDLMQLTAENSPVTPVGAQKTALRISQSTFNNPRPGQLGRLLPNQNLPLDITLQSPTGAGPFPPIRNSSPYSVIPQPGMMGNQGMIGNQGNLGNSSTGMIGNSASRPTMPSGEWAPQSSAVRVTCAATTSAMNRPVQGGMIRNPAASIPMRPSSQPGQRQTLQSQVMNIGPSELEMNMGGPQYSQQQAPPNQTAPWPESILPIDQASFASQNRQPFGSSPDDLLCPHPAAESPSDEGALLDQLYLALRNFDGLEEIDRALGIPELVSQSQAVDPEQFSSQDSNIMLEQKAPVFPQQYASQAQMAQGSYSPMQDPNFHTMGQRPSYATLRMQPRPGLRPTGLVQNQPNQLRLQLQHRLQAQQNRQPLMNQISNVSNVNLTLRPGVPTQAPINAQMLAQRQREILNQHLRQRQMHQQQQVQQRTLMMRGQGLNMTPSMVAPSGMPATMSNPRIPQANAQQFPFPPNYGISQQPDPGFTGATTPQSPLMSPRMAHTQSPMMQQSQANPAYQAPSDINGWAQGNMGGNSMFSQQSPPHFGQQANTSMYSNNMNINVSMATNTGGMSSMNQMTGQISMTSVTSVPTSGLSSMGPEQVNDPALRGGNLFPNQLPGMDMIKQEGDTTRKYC
Sequence of Phospholipase A2 (P04054 whole entry): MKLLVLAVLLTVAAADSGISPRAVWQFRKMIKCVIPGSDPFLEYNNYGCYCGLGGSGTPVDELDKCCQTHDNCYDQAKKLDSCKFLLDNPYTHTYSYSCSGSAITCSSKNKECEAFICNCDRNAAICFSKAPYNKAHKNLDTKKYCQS

CC1CCc2sc(C(=O)N3CCC(C(N)=O)CC3)cc2C1 (configuration not stated)
IC50 (Cysteine protease ATG4B): 13.2 µM (active)
IC50 (Phospholipase A2): 9.91 µM (active)

NC(=O)c1ccc(NC(=O)c2ccc3c(c2)OCO3)cc1
IC50 [1]: > 99 µM (inactive)
IC50 [2]: > 99 µM (inactive)
IC50 (Caspase-3): 7.08 µM (active)
IC50 [3]: 12.9 µM (active)

c1ccc(CN2CCN(C3CCCSc4ccccc43)CC2)cc1 (configuration not stated)
IC50 [4]: 23.9 µM (inactive)
IC50 (Orexin receptor type 2 [5]): > 50 µM (inactive)
IC50 (Orexin receptor type 2 [6]): > 88.8 µM (inactive)
IC50 [7]: > 49.8 µM (inactive)
IC50 [8]: 1.59 µM (active)
IC50 (CHO-K1): > 66.2 µM (inactive)

Brc1ccc(-c2nc(/C=C/c3ccccc3)no2)cc1
IC50 [1]: > 99 µM (inactive)
IC50 [2]: > 99 µM (inactive)
IC50 (Caspase-3): > 99 µM (inactive)
IC50 [3]: > 99 µM (inactive)

COC(=O)c1ccccc1NC1=C/C(=N/S(=O)(=O)c2cccs2)c2ccccc2C1=O
IC50 [1]: 2.15 µM (active)
IC50 [2]: 4.02 µM (active)
IC50 (Caspase-3): 24.5 µM (active)
IC50 [3]: 2.42 µM (active)

Cc1ccccc1-c1nnc(S)n1/N=C/c1ccc(-c2ccccc2Br)o1
EC50 [9]: 18.7 µM (active)
EC50 [10]: 28.6 µM (not active)
EC50 [11]: 29.4 µM (inactive)
EC50 [12]: > 79.4 µM (not active)
EC50 [13]: 13.9 µM (active)
IC50 (Vero): 2.91 µM (active)
EC50 [14]: 11.7 µM (active)
